Earlier results in patent US20210181185A1, “DENDRITIC CELL RECRUITMENT FROM BLOOD TO BRAIN IN NEURODEGENERATIVE DISEASE” (priority 2017, published 2021).

Conditions: free DiO

CCCCCCCCCCCCCCCCCCN1/C(=C\C=C\c2oc3ccccc3[n+]2CCCCCCCCCCCCCCCCCC)Oc2ccccc21.[O-][Cl+3]([O-])([O-])[O-] [DiO]
Clearance of free dye from blood: rapidly cleared from blood
